Consider four compounds from patent publication US11833139B2 (priority 2019, dated 2023).

In one experiment the test system is A. baumannii UNT091. Kind of experiment: MIC by broth microdilution (CLSI), carbapenem-resistant clinical isolate UNT091. The format is cell-based, Acinetobacter baumannii. The procedure:
(§1) Two A. baumannii isolates were used in this example: HUMC1 (BV374) (Spellberg/Luna Laboratory, University of Southern California, Los Angeles, Calif.) and UNT091-1 (BV378) (UNT Health Science Center, Fort Worth, Tex.). The HUMC1 isolate is a hyper-virulent drug-resistant clinical strain isolated from a blood-stream infection. […] The isolates were stored at −80° C. as 20% (v/v) glycerol cultures.
(§2) MICs were determined by the broth microdilution method following the guidelines of the Clinical Laboratory Standards Institute (CLSI) using RPMI supplemented with […] cationic-adjusted Muller Hinton broth (CA-MHB) as assay medium. To prepare the bacterial inocula, 3-5 colonies of bacterial strains from over-night growth on ChromAgar orientation plates (CHROMagar Cat. No. RT412) were suspended in 5 mL saline. The turbidity of the bacterial suspension was adjusted to 0.5 McFarland units (equal to an optical density at 610 nm (OD610) to 0.08-0.1). This suspension was diluted 200-fold in RPMI supplemented with 10% (v/v) FCS to reach a final concentration of […] colony forming units (CFU)/mL and was used to inoculate the microtiter plates.
(§3) Serial 2-fold dilutions of the antibiotics were prepared in a separate 96-well plate polypropylene U-bottom plate (Ratiolab Cat. No. 6018111) in RPMI supplemented with 10% (v/v) FCS at 10-fold of the final test concentrations and 10 μl of the dilutions were transferred to new 96-well polystyrene U-bottom microtiter plates with a parafilm plate cover.
(§4) The plates were then inoculated with 90 μL per well of the prepared bacterial suspensions in using a multichannel pipette (Eppendorf), with the first column containing 4 wells each for growth control (no antibiotic). […] The MIC was recorded as the lowest concentration of the compound that inhibited bacterial growth by visual inspection. MICs were determined at least in duplicates and in the case of variations, the higher values are provided.

The test system of another experiment is A. baumannii HUMC1. Kind of experiment: MIC by broth microdilution (CLSI), carbapenem-resistant clinical isolate HUMC1. The experiment is classed as cell-based, Acinetobacter baumannii. As to the method: as §1, §2, §3, §4
Background: In broth dilution the organism is exposed to a series of concentrations in liquid medium.

A further experiment deals with A. baumannii ACC00445. Kind of experiment: Neutropenic sepsis mouse model (CD-1 mice, IP infection). To be noted: IV at 1 h and 5 h post-infection, 10 mg/kg. The format is in vivo. The text has this: The CD-1 mice were IP infected with A. baumannii ACC00445 strain in the presence of […].
Where [1] appears, read: Acinetobacter baumannii, UNT091, UNT091, CA-MHB (Table 1), read-out: MIC.
[2] abbreviates: Acinetobacter baumannii, UNT091, UNT091, RPMI plus 10% FCS (Table 1), read-out: MIC.
[3] abbreviates: Acinetobacter baumannii, HUMC1, HUMC1, CA-MHB (Table 1), read-out: MIC.
Where [4] appears, read: Acinetobacter baumannii, HUMC1, HUMC1, RPMI plus 10% FCS (Table 1), read-out: MIC.

In brackets after ≈: the same amount, converted by molar mass. Where two headings read alike, the source gives them in different places. A value given as a limit tells only on which side of the number the result lay.

Usually MIC stands for the least concentration at which growth counts as inhibited.

For gentamicin, the MIC in the experiment on A. baumannii UNT091 (UNT091, CA-MHB (Table 1)) is greater than 16 µg/mL; in the experiment on A. baumannii UNT091 (UNT091, RPMI plus 10% FCS (Table 1)), greater than 16 µg/mL; in the experiment on A. baumannii HUMC1 (HUMC1, CA-MHB (Table 1)), greater than 16 µg/mL; in the experiment with A. baumannii HUMC1 (HUMC1, RPMI plus 10% FCS (Table 1)), greater than 16 µg/mL.

`CO[C@H]1/C=C/O[C@@]2(C)Oc3c(C)c(O)c4c(O)c(c(/C=N/N5CCN(C)CC5)c(O)c4c3C2=O)NC(=O)/C(C)=C\C=C\[C@H](C)[C@H](O)[C@@H](C)[C@@H](O)[C@@H](C)[C@H](OC(C)=O)[C@@H]1C` [rifampin]: the MIC was found to be 8 µg/mL (≈ 9.72 µM) in the experiment on A. baumannii UNT091 (setting [1]); 16 µg/mL in the experiment with A. baumannii UNT091 (setting [2]); 2 µg/mL in the experiment with A. baumannii UNT091 (Acinetobacter baumannii, UNT091, UNT091 parental strain, RPMI + 10% FCS (Table 2), read-out: MIC); 16 µg/mL (≈ 19.4 µM) in the experiment on A. baumannii HUMC1 (setting [3]); 16 µg/mL in the experiment with A. baumannii HUMC1 (setting [4]); 32 µg/mL in the experiment on A. baumannii HUMC1 (Acinetobacter baumannii, HUMC1, HUMC1 parental strain, RPMI + 10% FCS (Table 2), read-out: MIC). Besides, the protection against sepsis entry in the experiment on A. baumannii ACC00445 is on record as “does not”.

`C[C@@H](O)[C@H]1C(=O)N2C(C(=O)O)=C(S[C@@H]3CN[C@H](C(=O)N(C)C)C3)[C@H](C)[C@H]12` [meropenem]: the MIC in the experiment with A. baumannii UNT091 (setting [1]), in the experiment with A. baumannii UNT091 (setting [2]), in the experiment on A. baumannii HUMC1 (setting [3]) and in the experiment with A. baumannii HUMC1 (setting [4]) was greater than 16 µg/mL each time.

Take `CO/N=C(\C(=O)N[C@@H]1C(=O)N2C(C(=O)O)=C(COC(C)=O)CS[C@H]12)c1csc(N)n1` [cefotaxime]: the minimal inhibitory concentration (MIC) in the experiment on A. baumannii UNT091 (setting [1]), in the experiment with A. baumannii UNT091 (setting [2]), in the experiment on A. baumannii HUMC1 (setting [3]) and in the experiment with A. baumannii HUMC1 (setting [4]) was greater than 64 µg/mL each time.
